Experimental data: ChEMBL document CHEMBL1134695, “Synthesis and evaluation of novel quinolinones as HIV-1 reverse transcriptase inhibitors” (Bioorg Med Chem Lett, 2001)

Tests used:
[1] = system: Human immunodeficiency virus 1; assay: Antiviral activity against HIV-1 using antiinfectivity assay; type: functional, organism-based
[2] = target: Human immunodeficiency virus type 1 reverse transcriptase (Human immunodeficiency virus 1, UniProt Q72547); assay: Inhibition of HIV-1 reverse transcriptase.
[3] = target: Human immunodeficiency virus type 1 reverse transcriptase (Human immunodeficiency virus 1) (UniProt Q72547)
[4] = system: Human immunodeficiency virus type 1 reverse transcriptase (Human immunodeficiency virus 1), Q72547 [K103N]
[5] = system: Human immunodeficiency virus type 1 reverse transcriptase (Human immunodeficiency virus 1), Q72547 [UNDEFINED MUTATION]

Row | Compound | IC90 [1] [nM] | IC50 [2] [nM] | IC90 [3] [nM] | IC90 [4] [nM] | C90 [5] [µM]
1 | O=C1Nc2ccc(Cl)cc2[C@@](C#CC2CC2)(C(F)(F)F)[C@H]1NCc1ccccc1 | 218 | > 2000 |  |  | 
2 | O=C1Nc2ccc(Cl)cc2[C@@](C#CC2CC2)(C(F)(F)F)[C@H]1OCc1ccc(F)cc1 | 112 | 899 |  |  | 
3 | O=C1Nc2ccc(Cl)cc2[C@@](C#CC2CC2)(C(F)(F)F)[C@H]1O | 637 | > 2000 |  |  | 
4 | COC(=O)N[C@H]1C(=O)Nc2ccc(Cl)cc2[C@@]1(C#CC1CC1)C(F)(F)F | 212 | > 2000 |  |  | 
5 | Nc1ccccc1CO[C@H]1C(=O)Nc2ccc(Cl)cc2[C@@]1(C#CC1CC1)C(F)(F)F | 115 | 1020 |  |  | 
6 | Nc1cccc(CO[C@H]2C(=O)Nc3ccc(Cl)cc3[C@@]2(C#CC2CC2)C(F)(F)F)c1 | 138 | 1460 |  |  | 
7 | CCCO[C@H]1C(=O)Nc2ccc(Cl)cc2[C@@]1(C#CC1CC1)C(F)(F)F | 62 | 1050 |  |  | 
8 | O=C1Nc2ccc(Cl)cc2[C@@](C#CC2CC2)(C(F)(F)F)[C@H]1OCc1cccc(F)c1 | 201 | 1780 |  |  | 
9 | O=C1Nc2ccc(Cl)cc2[C@@](C#CC2CC2)(C(F)(F)F)[C@H]1OCC1CC1 | 130 | 1430 |  |  | 
10 | O=C1C[C@](C#CC2CC2)(C(F)(F)F)c2cc(Cl)ccc2N1 | 14 | 130 | 992 | 1770 | 
11 | CC(=O)N[C@H]1C(=O)Nc2ccc(Cl)cc2[C@@]1(C#CC1CC1)C(F)(F)F | 917 | > 2000 |  |  | 
12 | Nc1ccc(CO[C@H]2C(=O)Nc3ccc(Cl)cc3[C@@]2(C#CC2CC2)C(F)(F)F)cc1F | 26 | 241 |  |  | 
13 | O=C1Nc2ccc(Cl)cc2[C@@](C#CC2CC2)(C(F)(F)F)[C@H]1OCc1ccncc1 | 19 | 129 | 23 | 50 | 4.83
14 | Nc1ccc(CO[C@H]2C(=O)Nc3ccc(Cl)cc3[C@@]2(C#CC2CC2)C(F)(F)F)cc1 | 21 | 412 | 49 | 1080 | 3.85
15 | O=C1Nc2ccc(Cl)cc2[C@@](C#CC2CC2)(C(F)(F)F)[C@H]1OCc1cccnc1 | 20 | 438 |  |  | 
16 | O=C1Nc2ccc(Cl)cc2[C@@](C#CC2CC2)(C(F)(F)F)[C@H]1OCc1ccccc1F | 140 | 1300 |  |  | 
17 | O=C1Nc2ccc(Cl)cc2[C@@](C#CC2CC2)(C(F)(F)F)[C@H]1OCc1ccccc1 | 71 | 440 |  |  | 
18 | O=C1Nc2ccc(Cl)cc2[C@@](C#CC2CC2)(C(F)(F)F)[C@H]1OCc1ccccn1 | 140 | 1570 |  |  | 
19 | CC(C)=CCO[C@H]1C(=O)Nc2ccc(Cl)cc2[C@@]1(C#CC1CC1)C(F)(F)F | > 1000 | > 2000 |  |  | 
